Legend:
[1] = DPPH radical scavenging activity assessed as trolox equivalent antioxidant capacity; assay type: functional
[2] = ABTS radical scavenging activity assessed as trolox equivalent antioxidant capacity; assay type: physicochemical
[3] = Antioxidant activity assessed as ABTS radical scavenging activity; assay type: functional

Row | Compound | Activity [1] [MU] | Activity [2] [MU] | Activity [3] [mg/L]
1 | C[C@@H]1O[C@@H](Oc2cc(O)c3c(=O)c(O[C@@H]4O[C@H](CO)[C@@H](O)[C@H](O)[C@H]4O)c(-c4ccc(O)c(O)c4)oc3c2)[C@@H](O)[C@H](O)[C@@H]1O | 1.63 | 1.56 | 
2 | O=C1O[C@H]([C@@H](O)CO)C(O)=C1O |  |  | 100
3 | Oc1cc(O)c2c(c1)OC(c1ccc(O)c(O)c1)C(O)C2 (stereo not given) | 2.95 |  | 
4 | Oc1cc(O)c2c(c1)O[C@H](c1ccc(O)c(O)c1)[C@H](O)C2 [(-)-EPICATECHIN] | 3.18 | 3.08 | 
5 | O=c1cc(-c2ccc(O)cc2)oc2cc(O)cc(O)c12 [APIGENIN] | 0.041 | 0.086 | 
6 | O=c1cc(-c2ccc(O)cc2)oc2cc(O[C@@H]3O[C@H](CO)[C@@H](O)[C@H](O)[C@H]3O)cc(O)c12 [APIGETRIN] | 0.05 | 0.083 | 
7 | O=c1cc(-c2ccccc2)oc2cc(O)c(O)c(O)c12 [BAICALEIN] | 2.74 | 2.56 | 
8 | O=C(O)[C@H]1O[C@@H](Oc2cc3oc(-c4ccccc4)cc(=O)c3c(O)c2O)[C@H](O)[C@@H](O)[C@@H]1O [BAICALIN] | 1.79 | 1.55 | 
9 | O=C(/C=C/c1ccc(O)c(O)c1)c1ccc(O)cc1O [BUTEIN] | 2.27 | 2.42 | 
10 | O=C(O[C@H]1Cc2c(O)cc(O)cc2O[C@@H]1c1ccc(O)c(O)c1)c1cc(O)c(O)c(O)c1 [CATECHIN GALLATE] | 5.56 | 5.25 | 
11 | Oc1cc(O)c2c(c1)O[C@H](c1ccc(O)c(O)c1)[C@@H](O)C2 [CATECHIN] |  | 3.04 | 
12 | O=c1cc(-c2ccccc2)oc2cc(O)cc(O)c12 [CHRYSIN] | 0.053 | 0.081 | 
13 | O=c1c(-c2ccc(O)cc2)coc2cc(O)ccc12 [DAIDZEIN] | 0.033 | 0.101 | 
14 | O=c1c(-c2ccc(O)cc2)coc2cc(O[C@@H]3O[C@H](CO)[C@@H](O)[C@H](O)[C@H]3O)ccc12 [DAIDZIN] | 0.035 | 0.072 | 
15 | O=C(O[C@@H]1Cc2c(O)cc(O)cc2O[C@@H]1c1ccc(O)c(O)c1)c1cc(O)c(O)c(O)c1 [EPICATECHIN GALLATE] | 5.26 | 5.29 | 
16 | Oc1cc(O)c2c(c1)O[C@H](c1cc(O)c(O)c(O)c1)[C@H](O)C2 [EPIGALLOCATECHIN] | 3.56 | 3.71 | 
17 | O=C(O[C@@H]1Cc2c(O)cc(O)cc2O[C@@H]1c1cc(O)c(O)c(O)c1)c1cc(O)c(O)c(O)c1 [EPIGALOCATECHIN GALLATE] | 6.08 | 5.95 | 
18 | O=c1c(O)c(-c2ccccc2)oc2ccccc12 [FLAVONOL] | 0.484 | 0.707 | 
19 | O=c1c(O)c(-c2ccccc2)oc2cc(O)cc(O)c12 [GALANGIN] | 0.705 | 1.12 | 
20 | O=c1cc(-c2ccc(O)c(O)c2)oc2cc(O[C@@H]3O[C@H](CO)[C@@H](O)[C@H](O)[C@H]3O)cc(O)c12 [GALUTEOLIN] | 1.39 | 1.47 | 

Row | Compound | Activity [1] [MU] | Activity [2] [MU] | Activity [3] [mg/L]
21 | O=c1c(-c2ccc(O)cc2)coc2cc(O)cc(O)c12 [GENISTEIN] | 0.095 | 0.123 | 
22 | O=c1c(-c2ccc(O)cc2)coc2cc(O[C@@H]3O[C@H](CO)[C@@H](O)[C@H](O)[C@H]3O)cc(O)c12 [GENISTIN] | 0.026 | 0.077 | 
23 | COc1cc2c(=O)c(-c3ccc(O)cc3)coc2cc1O [GLYCITEIN] | 0.02 | 0.097 | 
24 | COc1ccc([C@@H]2CC(=O)c3c(O)cc(O)cc3O2)cc1O [HESPERETIN] | 0.268 | 0.403 | 
25 | COc1ccc([C@@H]2CC(=O)c3c(O)cc(O[C@@H]4O[C@H](CO[C@@H]5O[C@@H](C)[C@H](O)[C@@H](O)[C@H]5O)[C@@H](O)[C@H](O)[C@H]4O)cc3O2)cc1O [HESPERIDIN] | 0.075 | 0.104 | 
26 | O=c1c(O[C@@H]2O[C@H](CO)[C@@H](O)[C@H](O)[C@H]2O)c(-c2ccc(O)c(O)c2)oc2cc(O)cc(O)c12 [ISOQUERCETIN] | 2.16 | 2.39 | 
27 | O=c1c(O)c(-c2ccc(O)cc2)oc2cc(O)cc(O)c12 [KAEMPFEROL] | 1.32 | 1.59 | 
28 | O=c1cc(-c2ccc(O)c(O)c2)oc2cc(O)cc(O)c12 [LUTEOLIN] | 2.24 | 2.18 | 
29 | O=c1c(O)c(-c2ccc(O)cc2O)oc2cc(O)cc(O)c12 [MORIN] | 2.75 | 2.68 | 
30 | O=c1c(O)c(-c2cc(O)c(O)c(O)c2)oc2cc(O)cc(O)c12 [MYRICETIN] | 1.38 | 1.31 | 
31 | O=C1C[C@@H](c2ccc(O)cc2)Oc2cc(O)cc(O)c21 [NARINGENIN] | 0.136 | 0.217 | 
32 | C[C@@H]1O[C@@H](O[C@H]2[C@H](Oc3cc(O)c4c(c3)O[C@H](c3ccc(O)cc3)CC4=O)O[C@H](CO)[C@@H](O)[C@@H]2O)[C@H](O)[C@H](O)[C@H]1O [NARINGIN] | 0.077 | 0.098 | 
33 | O=C(CCc1ccc(O)cc1)c1c(O)cc(O)cc1O [PHLORETIN] | 1.24 | 1.79 | 
34 | Oc1cc(O)c2c(c1)O[C@H](c1ccc(O)c(O)c1)[C@H](O)[C@H]2c1c(O)cc(O)c2c1O[C@H](c1ccc(O)c(O)c1)[C@@H](O)C2 [PROCYANIDIN B1] | 5.94 | 6.14 | 
35 | Oc1cc(O)c2c(c1)O[C@H](c1ccc(O)c(O)c1)[C@H](O)[C@H]2c1c(O)cc(O)c2c1O[C@H](c1ccc(O)c(O)c1)[C@H](O)[C@H]2c1c(O)cc(O)c2c1O[C@H](c1ccc(O)c(O)c1)[C@H](O)C2 [PROCYANIDIN C1] | 8.79 | 8.29 | 
36 | O=c1c(O)c(-c2ccc(O)c(O)c2)oc2cc(O)cc(O)c12 [QUERCETIN] | 4.6 | 4.42 | 
37 | C[C@@H]1O[C@@H](Oc2c(-c3ccc(O)c(O)c3)oc3cc(O)cc(O)c3c2=O)[C@H](O)[C@H](O)[C@H]1O [QUERCITRIN] | 2.57 | 2.18 | 
38 | C[C@@H]1O[C@@H](OC[C@H]2O[C@@H](Oc3c(-c4ccc(O)c(O)c4)oc4cc(O)cc(O)c4c3=O)[C@H](O)[C@@H](O)[C@@H]2O)[C@H](O)[C@H](O)[C@H]1O [RUTIN] | 2.33 | 2.02 | 
39 | O=c1cc(-c2ccc(O)cc2)oc2c([C@@H]3O[C@H](CO)[C@@H](O)[C@H](O)[C@H]3O)c(O)cc(O)c12 [VITEXIN] | 0.205 | 0.216 | 
